Reference: patent publication US12129487B2, “Method to obtain lymphoid progenitors” (INSERM (Institute National de la Santé et de la Recherche …, priority 2017, dated 2024)

Columns and labels:
LSK SLAM (HSCs) or MPPs = experiment: In vitro differentiation assay of purified LSK SLAM or MPPs in cytokine-supplemented feeder-free media; assay type: cell-based, mouse
MPPs = experiment: Impact of CXCL12 concentrations on lymphoid commitment of purified MPPs in vitro; assay type: cell-based, mouse; settings: WT MPPs, CXCL12 1 to 1,000 ng/ml at start, day 4 (FIG. 3)
Procedure: Purified MPPs were seeded at 450 cells into a 96-well tissue culture plate in DMEM medium supplemented with 10% FBS, 1% penicillin, and the following cytokines: mouse SCF (50 ng/mL), mouse IL-3 (10 ng/mL), human IL-6 (10 ng/mL), mouse IL-7 (5 ng/mL), and human Flt3 (5 ng/mL). Different concentrations of CXCL12 ranging from 1 to 1,000 ng/ml were added at the start of the culture. Cells were cultured at 37° C. in a humidified atmosphere containing 5% CO2, and were harvested after 4 days of culture to analyze HSPCs by flow cytometry.

Source text for circulating HSPCs: One hour later, peripheral blood was harvested, analyzed by flow cytometry and tested for CFU-C assays.

## c1cc(CN2CCCNCCNCCCNCC2)ccc1CN1CCCNCCNCCCNCC1 [AMD3100]
Circulating HSPCs; WT mice, single intra-peritoneal injection (5 mg/kg), one hour after injection, blood
  absolute numbers of circulating HSPCs: significant increase
Circulating HSPCs; mutant (Cxcr4 1013-bearing) mice, single intra-peritoneal injection, one hour, reaching that of untreated WT mice
  absolute numbers of HSPCs in the blood: increased

## CXCL12: C-X-C motif chemokine 12, natural ligand of CXCR4, added to the culture medium
LSK SLAM (HSCs) or MPPs; 100 ng/mL added at start of culture of MPPs, regardless of Cxcr4 genotype, less pronounced among mutant cells
  appearance of LMPPs: promoted the appearance of LMPPs
LSK SLAM (HSCs) or MPPs; 100 ng/mL added at start of culture, mutant cells, days 2 and 4 (FIGS. 1 and 2)
  proportions and numbers of Cxcr4 1013-bearing MPPs: further enhanced
MPPs
  myeloid-biased MPP2 proportions and numbers: decrease
  myeloid-biased MPP3 proportions and numbers: decrease
  proportions and absolute numbers of MPPs: significant and dose-dependent increase
  proportions and absolute numbers of lymphoid-biased MPP4: significant and dose-dependent increase
